Reference: the supplement of paper PMC10307832

Experiments:
Experiment in all cases: relative viability (nuclei count vs DMSO), 5 days (fraction); higher = more cells survive
[1] = compound: C1CSC2=C(C(=O)N1)SC3=C2C=C(C=C3)O [kb NB 142-70] + CC(=O)Nc1cccc(-n2c(=O)n(C3CC3)c(=O)c3c(Nc4ccc(I)cc4F)n(C)c(=O)c(C)c32)c1 [Trametinib] (partner 0.02 µM)
Outline: (§1)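 Relative viability equals treated-well nuclei counts divided by vehicle-well nuclei counts. Counts came from 4× images of lung cancer cell lines grown in 1536-well plates for 5 days after pin-tool dosing on the day after seeding. Dosing used one drug alone or a fixed anchor-drug dose plus five library-drug doses (not always all listed) in √10 steps, and values are medians of duplicate plates.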

[2] = compound: NCC(=O)Nc1ccc(-n2nc(C(F)(F)F)cc2-c2ccc3c(ccc4ccccc43)c2)cc1 + CS(=O)(=O)CCNCc1ccc(-c2ccc3ncnc(Nc4ccc(OCc5cccc(F)c5)c(Cl)c4)c3c2)o1 [Lapatinib] (partner 2 µM)
Outline: as §1

[3] = compound: NCC(=O)Nc1ccc(-n2nc(C(F)(F)F)cc2-c2ccc3c(ccc4ccccc43)c2)cc1 + O=C(c1cc(Cc2n[nH]c(=O)c3ccccc23)ccc1F)N1CCN(C(=O)C2CC2)CC1 [Olaparib] (partner 8 µM)
Outline: as §1

[4] = compound: C1CSC2=C(C(=O)N1)SC3=C2C=C(C=C3)O [kb NB 142-70] + CS(=O)(=O)N1CCN(Cc2cc3nc(-c4cccc5[nH]ncc45)nc(N4CCOCC4)c3s2)CC1 [Pictilisib] (partner 1 µM)
Outline: as §1

[5] = compound: C1CSC2=C(C(=O)N1)SC3=C2C=C(C=C3)O [kb NB 142-70] + O=C(CCCCCCC(=O)Nc1ccccc1)NO [Vorinostat] (partner 1 µM)
Outline: as §1

## UMC-11
[1]; first compound 0.1 µM
  relative viability: 0.668
[1]; first compound 1 µM
  relative viability: 0.735
[1]; first compound 3.162 µM
  relative viability: 0.464
[2]; first compound 0.02 µM
  relative viability: 0.952
[2]; first compound 0.06325 µM
  relative viability: 1.09
[2]; first compound 0.2 µM
  relative viability: 0.985
[2]; first compound 0.6325 µM
  relative viability: 1.15
[2]; first compound 2 µM
  relative viability: 0.898
[3]; first compound 0.02 µM
  relative viability: 0.307
[3]; first compound 0.06325 µM
  relative viability: 0.355
[3]; first compound 0.2 µM
  relative viability: 0.537
[3]; first compound 0.6325 µM
  relative viability: 0.354
[3]; first compound 2 µM
  relative viability: 0.377
[4]; first compound 0.1 µM
  relative viability: 0.83
[4]; first compound 1 µM
  relative viability: 0.719
[4]; first compound 3.162 µM
  relative viability: 0.44
[5]; first compound 0.1 µM
  relative viability: 0.39
[5]; first compound 1 µM
  relative viability: 0.316
[5]; first compound 3.162 µM
  relative viability: 0.223
